In patent US10369134B2, “Nonracemic mixtures and uses thereof” (Sunovion Pharmaceuticals Inc., priority 2017, dated 2019):

Legend:
rat = assay: Forced Swim test; type: in vivo; conditions: 0.5 mg/kg i.p. at 24, 5 and 1 h before swim test, mean ± SE, vehicle 168±12
Method: The Forced Swim test (FST) is an indicator of the antidepressant-like activity of a test compound. The rat will swim before “giving up” and becoming immobile. A compound with antidepressant-like activity will decrease the time the rat is immobile.
The animals (n=90) were divided into five groups. […] In the training session, each animal was gently placed into the plastic cylinder containing 5.8 L of water set at 25±1° C. Fifteen minutes after the beginning of the training session, the animal was removed from the water. The dosing solutions were administered 15 minutes after finishing of the training.
The swim test was performed for 5 minutes in the same manner as the training session. In the swim test, the behavior of each animal was horizontally recorded using a video camera. After the swim test, animals were immediately sacrificed by inhalation of carbon dioxide.
The swim movies were handled in a blind manner to ensure that the person who measured the immobility time had no information on the treatment. An animal was judged to be immobile whenever it remained floating in the water without moving its body or forepaws except for the slight movement to maintain its posture. The total time for which the animal remained immobile was defined as the immobility time. An observer blinded to the doses measured the immobility times. The immobility time of each animal was measured to one decimal place and rounded to a whole number. Immobility time was expressed in units of seconds. In each series the means of immobility time were calculated and rounded to a whole number using. The mean and standard error (SE) for each group were calculated using the data obtained from three experimental series and rounded to a whole number. All results are represented as the mean±SE.
The data of imipramine were analyzed using t-test with a two-sided significance level of 5% (p<0.05).

healthy subjects = assay: REM suppression polysomnography (PSG) study of (R)-amisulpride; type: in vivo; conditions: human; for decrease in the time spent in REM sleep / reduction of the portion of the night spent in REM: range is 90% confidence interval
Method: REM suppression was the biomarker used to determine clinically-significant levels of 5-HT7 antagonism and its pharmacodynamics. REM suppression was assessed by total time in minutes spent in REM sleep and by the latency in minutes to REM sleep. […] REM suppression in human volunteers is an established translational biomarker useful to identify doses for antidepressant effects in patients.
The primary endpoint was REM sleep suppression as determined at post dose time points in the measures of latency to REM sleep, REM sleep time in minutes, and percent decrease in REM sleep time relative to total sleep time.
The results presented in Tables 6A-6C were determined from an analysis of the date based on a linear mixed model with terms for treatment, period, and treatment sequence as fixed effects, respective baseline PSG value as a continuous covariate, and treatment-by-baseline PSG interaction, and subject nested within sequence as a random effect, the Kenward and Roger correction for the degrees of freedom and an unstructured covariance structure to model the intrasubject correlation. The abbreviations used in Tables 6A-6C are as follows: PSG=polysomnography; CI=confidence interval; LS=least-squares; REM=rapid eye movement; SE=standard error.

freely moving rats = assay: Sleep study of (R)-amisulpride (EEG/EMG sleep architecture); type: in vivo, rat
Method: Rapid eye movement (REM) sleep time, non-rapid eye movement (NREM) sleep time, WAKE time were measured using electroencephalogram (EEG) and electromyogram (EMG) recordings. […] EEG and EMG recordings were made for 6 hr starting at the beginning of the light phase. Vehicle (0.05 N HCl/0.5% Methyl Cellulose 400 solution) or dosing suspensions were orally administered 10 min before the beginning of light phase. The volume of administration was 5 mL/kg. The order of drug treatment varied pseudo-randomly and at least 1 week was allowed between the experiments for individual animals.
A radio transmitter (TL11M2-F40-EET; Data Science International, New Brighton, Minn., USA) was implanted subcutaneously in the back of anesthetized animals, and a pair of electrode wires was stereotaxically implanted into the skull in the following locations: one in the frontoparietal (2 mm anterior to the bregma and 2 mm left to the midline), and the other in parietal (5 mm posterior to the bregma and 2 mm right to the midline) areas. The EEG electrodes were fixed using dental cement. Electromyograms (EMG) were recorded from the dorsal neck muscle. The animals, then, were allowed at least 1 week recovery in individual plastic cages before EEG/EMG recording. EEG/EMG were recorded in the home cages in a soundproof box using Dataquest A.R.T. software (Data Science International, New Brighton, Minn., USA) at a sampling rate of 500 Hz.
Sleep stage analysis was conducted off-line using Sleepsign software (KISSEI COMTEC CO., LTD, Nagano, Japan). Electrographic activity of 10-sec epochs were analyzed and each epoch was automatically assigned as WAKE, REM, and NREM based on the waveforms of EEG and EMG according to the following definitions: WAKE was defined as a condition in which EMG exceeded the individual threshold, NREM was defined as a condition in which the power of delta waves (0.5-4 Hz) exceeded the individual threshold with no EMG activity, and REM was defined as a condition in which the power of theta waves (4-8 Hz) exceeded 40% of the total power of frequencies between 0.5 and 80 Hz in the presence of no EMG activity. The duration of each REM, WAKE, and NREM periods were calculated by summing time spent in each condition during sleep every 2 hours.
All data are expressed as means±S.E.M. REM sleep, NREM sleep time, and WAKE time each of sequential 2-hr periods were compared statistically using a repeated measures two-way ANOVA, followed by post-hoc Dunnett tests.

Compound: CCN1CCC[C@@H]1CNC(=O)c1cc(S(=O)(=O)CC)c(N)cc1OC [(R)-amisulpride, R-4-Amino-N-[(1-ethyl-2-pyrrolidinyl)methyl]-5-(ethylsulfonyl)-2-methoxybenzamide]
- immobility time (rat): 124 ± 12 s
- decrease in REM sleep (healthy subjects; 340 mg (FIG. 15C)): about 20 minutes
- decrease in REM sleep (healthy subjects; 600 mg (FIG. 15C)): about 30 minutes
- subjects who reported adverse events (healthy subjects; of the 13 subjects dosed with 600 mg): 3 subjects
- suppression of REM sleep (healthy subjects; single dose 600 mg): clinically meaningful and statistically significant suppression of REM sleep
- vital signs and ECGs (healthy subjects; single oral dose): normal
- Latency to REM Sleep, LS Mean Difference (SE) from placebo (healthy subjects; single oral dose 340 mg, n=20): 28.23 (9.82) Minutes
- REM Percent, LS Mean Difference (SE) from placebo (healthy subjects; single oral dose 340 mg, n=20): −4.15 (1.09) %
- REM Time, LS Mean Difference (SE) from placebo (healthy subjects; single oral dose 340 mg, n=20): −18.45 (4.91) Minutes
- REM Percent, LS Mean (SE) (healthy subjects; single oral dose 340 mg, n=20, placebo 25.69 (0.92)): 21.55 (0.92) %
- Latency to REM Sleep, LS Mean (SE) (healthy subjects; single oral dose 340 mg, n=20, placebo 77.03 (9.42)): 105.25 (9.42) Minutes
- REM Time, LS Mean (SE) (healthy subjects; single oral dose 340 mg, n=20, placebo 110.05 (4.69)): 91.60 (4.69) Minutes
- decrease in the time spent in REM sleep (healthy subjects; single oral dose 340 mg): 10 to 27 min
- reduction of the portion of the night spent in REM (healthy subjects; single oral dose 340 mg): 2-6 percentage points
- Latency to REM Sleep, LS Mean Difference (SE) from placebo (healthy subjects; single oral dose 600 mg, n=13): 20.30 (9.39) Minutes
- REM Percent, LS Mean Difference (SE) from placebo (healthy subjects; single oral dose 600 mg, n=13): −6.24 (1.45) %
- REM Time, LS Mean Difference (SE) from placebo (healthy subjects; single oral dose 600 mg, n=13): −31.39 (7.99) Minutes
- REM Percent, LS Mean (SE) (healthy subjects; single oral dose 600 mg, n=13, placebo 24.30 (1.14)): 18.06 (1.14) %
- Latency to REM Sleep, LS Mean (SE) (healthy subjects; single oral dose 600 mg, n=13, placebo 89.06 (7.71)): 109.35 (7.71) Minutes
- REM Time, LS Mean (SE) (healthy subjects; single oral dose 600 mg, n=13, placebo 107.98 (5.65)): 76.59 (5.65) Minutes
- decrease in the time spent in REM sleep (healthy subjects; single oral dose 600 mg): 18 to 45 min
- reduction of the portion of the night spent in REM (healthy subjects; single oral dose 600 mg): 4-9 percentage points
- tolerability (healthy subjects; single oral dose 340 or 600 mg): well tolerated
- REM sleep duration (freely moving rats; rat, 100 mg/kg p.o., 0-2 hr and 2-4 hr periods after administration): significant reductions
- NREM sleep time (freely moving rats; rat, 10, 30, 100 mg/kg p.o.): no observed effect
- WAKE time (freely moving rats; rat, 10, 30, 100 mg/kg p.o.): no observed effect
- REM sleep duration (freely moving rats; rat, 10, 30, 100 mg/kg p.o., light phase): reduced REM sleep duration in dose-dependent manner
